{"source": "paper PMC6375636", "about": "“Monotherapy with a low-dose lipopeptide HIV fusion inhibitor maintains long-term viral suppression in rhesus macaques” (PLoS Pathogens, 2019)", "type_in_all_cases": "cell-based", "key": {"[1]": {"system": "HIV-1 pseudovirus, primary Env 246_F3_C10_2", "conditions": "Env 246_F3_C10_2, subtype A/C; mean ± SD of 3 assays in triplicate", "summary_of_the_method": "(§1)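 Luciferase in TZM-bl cells was the read-out. Cells (10^4/well) received virus–inhibitor mixtures (100 TCID50, 3-fold serial dilutions, 1 h room-temperature preincubation) and were cultured 48 h at 37°C. Pseudovirus came from HEK293T cotransfection with Env plasmid plus pSG3Δenv; replication-competent clones were transfected alone.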"}, "[2]": {"system": "HIV-1 pseudovirus, primary Env SC422661.8", "conditions": "Env SC422661.8, subtype B; mean ± SD of 3 assays in triplicate", "summary_of_the_method": "as §1"}, "HIV-1 R3A": {"molecular_target": "HIV-1 R3A", "conditions": "Table 2, subtype B, R5X4, mean ± SD of 3 assays in triplicate", "summary_of_the_method": "as §1"}, "[3]": {"system": "HIV-1 pseudovirus, primary Env CNE8", "conditions": "Env CNE8, subtype A/E; mean ± SD of 3 assays in triplicate", "summary_of_the_method": "as §1"}, "[4]": {"system": "HIV-1 pseudovirus, primary Env CE1176_A3", "conditions": "Env CE1176_A3, subtype C; mean ± SD of 3 assays in triplicate", "summary_of_the_method": "as §1"}, "HIV-1 CH040.c/2625": {"molecular_target": "HIV-1 CH040.c/2625", "conditions": "Table 2; CH040.c/2625, subtype B, R5; mean ± SD of 3 assays in triplicate", "summary_of_the_method": "as §1"}, "[5]": {"system": "HIV-1 pseudovirus, primary Env GX11.13", "conditions": "Env GX11.13, subtype A/E; mean ± SD of 3 assays in triplicate", "summary_of_the_method": "as §1"}, "[6]": {"system": "HIV-1 pseudovirus, primary Env ZM53M.PB12", "conditions": "Env ZM53M.PB12, subtype C; mean ± SD of 3 assays in triplicate", "summary_of_the_method": "as §1"}, "[7]": {"system": "HIV-1 pseudovirus, primary Env CH110", "conditions": "Env CH110, subtype B/C; mean ± SD of 3 assays in triplicate", "summary_of_the_method": "as §1"}, "[8]": {"system": "HIV-1 pseudovirus, primary Env 92RW020", "conditions": "Env 92RW020, subtype A; mean ± SD of 3 assays in triplicate", "summary_of_the_method": "as §1"}, "[9]": {"system": "replication-competent HIV-1 isolates", "conditions": "mean of the ten isolates of Table 2; read-out: Mean IC50 over the replication-competent isolates", "summary_of_the_method": "as §1"}, "[10]": {"system": "HIV-1 pseudovirus, primary Env CAP210.2.00.E8", "conditions": "Env CAP210.2.00.E8, subtype C; mean ± SD of 3 assays in triplicate", "summary_of_the_method": "as §1"}, "[11]": {"system": "HIV-1 pseudovirus, primary Env JRFL", "conditions": "subtype B, mean ± SD of 3 assays in triplicate", "summary_of_the_method": "as §1"}, "[12]": {"system": "HIV-1 pseudovirus, primary Env R3A", "conditions": "subtype B, mean ± SD of 3 assays in triplicate", "summary_of_the_method": "as §1"}, "[13]": {"system": "HIV-1 pseudovirus, primary Env 43–22", "conditions": "Env 43–22, subtype B'; mean ± SD of 3 assays in triplicate", "summary_of_the_method": "as §1"}, "[14]": {"system": "divergent HIV-1 subtypes (pseudoviruses with primary Envs)", "conditions": "mean of the 36 pseudoviruses of Table 3; for VRC01 >300000 apparently counted as 300000; read-out: Mean IC50 over divergent HIV-1 subtypes", "summary_of_the_method": "as §1"}, "[15]": {"system": "HIV-1 pseudovirus, primary Env X1632-S2-B10", "conditions": "Env X1632-S2-B10, subtype G; mean ± SD of 3 assays in triplicate", "summary_of_the_method": "as §1"}, "HIV-1 SG3": {"molecular_target": "HIV-1 SG3", "conditions": "Table 2; SG3, subtype B, X4; mean ± SD of 3 assays in triplicate", "summary_of_the_method": "as §1"}, "[16]": {"system": "HIV-1 pseudovirus, primary Env B02", "conditions": "Env B02, subtype B'; mean ± SD of 3 assays in triplicate", "summary_of_the_method": "as §1"}, "HIV-1 THRO.c/2626": {"molecular_target": "HIV-1 THRO.c/2626", "conditions": "Table 2; THRO.c/2626, subtype B, R5; mean ± SD of 3 assays in triplicate", "summary_of_the_method": "as §1"}, "[17]": {"system": "HIV-1 pseudovirus, primary Env X2278_C2_B6", "conditions": "Env X2278_C2_B6, subtype B; mean ± SD of 3 assays in triplicate", "summary_of_the_method": "as §1"}, "[18]": {"system": "HIV-1 pseudovirus, primary Env B04", "conditions": "Env B04, subtype B'; mean ± SD of 3 assays in triplicate", "summary_of_the_method": "as §1"}, "[19]": {"system": "HIV-1 pseudovirus, primary Env CH119.10", "conditions": "Env CH119.10, subtype B/C; mean ± SD of 3 assays in triplicate", "summary_of_the_method": "as §1"}, "[20]": {"system": "HIV-1 pseudovirus, primary Env SHX335.24", "conditions": "Env SHX335.24, subtype A/E; mean ± SD of 3 assays in triplicate", "summary_of_the_method": "as §1"}, "[21]": {"system": "HIV-1 pseudovirus, primary Env AC10.0.29", "conditions": "Env AC10.0.29, subtype B; mean ± SD of 3 assays in triplicate", "summary_of_the_method": "as §1"}, "[22]": {"system": "HIV-1 pseudovirus, primary Env 398-F1_F6_20", "conditions": "Env 398-F1_F6_20, subtype A; mean ± SD of 3 assays in triplicate", "summary_of_the_method": "as §1"}, "[23]": {"system": "HIV-1 pseudovirus, primary Env TRO.11", "conditions": "Env TRO.11, subtype B; mean ± SD of 3 assays in triplicate", "summary_of_the_method": "as §1"}}, "data": [{"substance": "enfuvirtide [Lipopeptide T-20, reference compound]", "values": [{"measurement": "IC50", "setting": "[1]", "result": "36.2 ± 3.7", "unit": "nM"}, {"measurement": "IC50", "setting": "[2]", "result": "16.1 ± 2.24", "unit": "nM"}, {"measurement": "IC50", "setting": "HIV-1 R3A", "result": "6.73 ± 1.08", "unit": "nM"}, {"measurement": "IC50", "setting": "[3]", "result": "24.8 ± 1.88", "unit": "nM"}, {"measurement": "IC50", "setting": "[4]", "result": "8.4 ± 0.496", "unit": "nM"}, {"measurement": "IC50", "setting": "HIV-1 CH040.c/2625", "result": "30.9 ± 3.81", "unit": "nM"}, {"measurement": "IC50", "setting": "[5]", "result": "24.9 ± 2.21", "unit": "nM"}, {"measurement": "IC50", "setting": "[6]", "result": "22.7 ± 0.943", "unit": "nM"}, {"measurement": "IC50", "setting": "[7]", "result": "31 ± 2.67", "unit": "nM"}, {"measurement": "IC50", "setting": "[8]", "result": "3.24 ± 0.232", "unit": "nM"}, {"measurement": "IC50", "setting": "[9]", "result": 15.3, "unit": "nM"}, {"measurement": "IC50", "setting": "[10]", "result": "123 ± 4.77", "unit": "nM"}, {"measurement": "IC50", "setting": "[11]", "result": "9.62 ± 0.502", "unit": "nM"}, {"measurement": "IC50", "setting": "[12]", "result": "6.88 ± 1.12", "unit": "nM"}, {"measurement": "IC50", "setting": "[13]", "result": "23.2 ± 0.593", "unit": "nM"}, {"measurement": "IC50", "setting": "[14]", "result": 30, "unit": "nM"}, {"measurement": "IC50", "setting": "[15]", "result": "15.6 ± 2.01", "unit": "nM"}, {"measurement": "IC50", "setting": "HIV-1 SG3", "result": "2.85 ± 0.227", "unit": "nM"}, {"measurement": "IC50", "setting": "[16]", "result": "10.4 ± 0.529", "unit": "nM"}, {"measurement": "IC50", "setting": "HIV-1 THRO.c/2626", "result": "31.3 ± 2.39", "unit": "nM"}, {"measurement": "IC50", "setting": "[17]", "result": "5.66 ± 0.0744", "unit": "nM"}, {"measurement": "IC50", "setting": "[18]", "result": "5.65 ± 0.366", "unit": "nM"}, {"measurement": "IC50", "setting": "[19]", "result": "11.5 ± 1.75", "unit": "nM"}, {"measurement": "IC50", "setting": "[20]", "result": "40.6 ± 1.42", "unit": "nM"}, {"measurement": "IC50", "setting": "[21]", "result": "2.85 ± 0.103", "unit": "nM"}, {"measurement": "IC50", "setting": "[22]", "result": "19.4 ± 1.71", "unit": "nM"}, {"measurement": "IC50", "setting": "[23]", "result": "7.05 ± 1.33", "unit": "nM"}]}]}
